Target: T1, Recombinant human renin (Homo sapiens, UniProt P00797)
T1 construct: made in house; host or cells: Chinese Hamster Ovary cells
T1 sequence (P00797 67-406): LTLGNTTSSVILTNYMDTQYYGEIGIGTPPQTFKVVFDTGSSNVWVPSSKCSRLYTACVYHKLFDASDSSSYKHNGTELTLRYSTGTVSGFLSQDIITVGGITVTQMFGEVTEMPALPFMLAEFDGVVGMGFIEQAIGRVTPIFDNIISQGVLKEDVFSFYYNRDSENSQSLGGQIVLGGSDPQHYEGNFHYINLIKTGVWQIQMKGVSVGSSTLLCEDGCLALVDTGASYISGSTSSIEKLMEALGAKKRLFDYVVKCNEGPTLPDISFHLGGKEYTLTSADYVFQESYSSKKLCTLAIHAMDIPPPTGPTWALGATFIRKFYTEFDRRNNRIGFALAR
Test: FRET assay of renin inhibition
Type: biochemical
Experimental: Recombinant human renin (expressed in Chinese Hamster Ovary cells and purified using standard methods) at 4 nM concentration is incubated with test compound at various concentrations for 1 h at RT in 0.1 M Tris-HCl buffer, pH 7.4, containing 0.05 M NaCl, 0.5 mM EDTA and 0.05% CHAPS. Synthetic peptide substrate Arg-Glu(EDANS)-Ile-His-Pro-Phe-His-Leu-Val-Ile_His_Thr-Lys(DABCYL)-Arg9 is added to a final concentration of 2 μM and increase in fluorescence is recorded at an excitation wave-length of 340 nm and at an emission wave-length of 485 nm in a microplate spectro-fluorimeter. IC50 values are calculated from percentage of inhibition of renin activity as a function of test compound concentration (Fluorescence Resonance Energy Transfer, FRET, assay).

Work on `COCCCOc1cc(C[C@@H](C[C@H](N)[C@@H](O)C[C@H](C(=O)N[C@@H](C)C2CCCCC2)C(C)C)C(C)C)ccc1OC` [Example 29, (2S,4S,5S,7S)-5-Amino-4-hydroxy-2-isopropyl-7-[4-methoxy-3-(3-methoxy-propoxy)-benzyl]-8-methyl-nonanoic acid ((S)-1-cyclohexyl-ethyl)-amide] yielded an IC50 of ~0.3 nM.

Source: US7919529B2, “δ-amino-γ-hydroxy-ω-aryl-alkanoic acid amides” (Novartis AG, priority 2003, dated 2011)
